Results reported in US20240034765A1, “SCG2 NEUROPEPTIDES AND USES THEREOF” (PRESIDENT AND FELLOWS OF HARVARD COLLEGE, priority 2020, published 2024).

Key:
[1] = system: IPSCs in CA1 pyramidal neurons; assay: Check that IPSCs in dual whole-cell recordings are monosynaptic (onset latency); format: cell-based, mice; conditions: NBQX and (R)-CPP added together in the bath
Description: For electrical stimulation experiments, electrical current was delivered via theta glass stimulation electrode placed in the center of stratum pyramidale or stratum radiatum within 150-200 μm of the recorded neuron pair. The stimulus strength was the minimum required to generate small but reliable currents in both neurons. IPSCs were pharmacologically isolated via the addition of 10 μM NBQX (TOCRIS 1044) and 10 μM (R)-CPP (TOCRIS 0247) to the ACSF perfusion.
For the paired interneuron-to-CA1 pyramidal neuron recordings, the monosynaptic nature of the IPSCs was confirmed based on the expected onset latency of 1-3 ms in slice.

PV-IPSCs in CA1 PCs [2] = assay: shRNA-mediated gene knockdown, dual whole-cell recordings of light-evoked PV-IPSCs; format: in vivo; conditions: Dlx5/6Flp; PVCre mice treated with KA for 24 h
Text: To identify molecular effector(s) of bidirectional perisomatic inhibitory plasticity downstream of Fos activation, short hairpin RNA (shRNA)-mediated gene knockdown was used to determine if any of the six candidate genes mediate the activity-dependent strengthening of PV-mediated inhibition. After verifying the efficiency of knockdown in neurons (see e.g., FIG. 13B) and the absence of adverse effects on overall neuronal viability, individual shRNAs were cloned into a Flp-OFF AAV, allowing payload inactivation by Flp recombinase and the exclusion of shRNA expression in GABAergic INs when using Dlx5/6^Flp mice (see e.g., FIG. 4A, FIG. 4B, FIG. 13C, FIG. 8A).
Following sparse transduction of neurons, PV-IPSCs was simultaneously measured in neighboring pairs of shRNA-positive (mCherry^+) and shRNA-negative (mCherry^−) PCs by photostimulating PV-specific ChR2-expressing boutons in Dlx5/6^Flp; PV^Cre mice that had been treated with KA for 24 h (see e.g., FIG. 4B). […] Similar results were observed following more the physiological condition of NE exposure (see e.g., FIG. 4E, FIG. 13F), indicating a prominent role for CA1 PC-derived Scg2 in the long-term regulation of PV-mediated inhibition.
Viral vectors and titers. All AAVs used were prepared in a Hospital Viral Core and were of serotype AAV2/1. For sparse transductions, viruses were injected at 1×10^8 genome copies per hippocampal hemisphere. For dense transductions, viruses were injected at 2×10^9 genome copies (gc) per hippocampal hemisphere. The viral vectors and original titers were as follows: pAAV-EF1a-DIO-hChR2(H134R)-EYFP (ADDGENE 20298, 1.75×10^13 gc/mL), pAAV-EF1a-fDIO-hChR2(H134R)-EYFP (ADDGENE 55639, 1.39×10^13 gc/mL), pAAV-hSyn-Con/Fon-hChR2-EYFP (ADDGENE 55645, […]), pAAV-pRAM-tTA::TRE-NLS-mKate2-WPREpA (ADDGENE 84474, 2.25×10^13 gc/mL), pAAV-CAG-Cre-GFP (OHIO STATE UNIVERSITY, 1.75×10^13 gc/mL), pAAV-CAG-Cre-mCherry (described herein, 9.10×10^12 gc/mL), pAAV-CAG-Cre-mTagBFP2 (described herein, 2.97×10^12 gc/mL), pAAV-CAG-deltaCre-GFP (described herein, 2.79×10^12 gc/mL), pAAV-FlpOFF-u6-shRNA-CAG-mCherry (described herein): Scrambled control shRNA (SEQ ID NO: 13, ACTTACGCTGAGTACTTCG) (5.08×10^13 gc/mL), Inhba (SEQ ID NO: 14, […]) (4.62×10^13 gc/mL), Bdnf (SEQ ID NO: 15, […]) (6.97×10^13 gc/mL), Pcsk1 (SEQ ID NO: 16, […]) (6.02×10^12 gc/mL), Nptx2 (SEQ ID NO: 17, […]) (1.30×10^12 gc/mL), Scg2#1 (SEQ ID NO: 18, […]) (8.11×10^11 gc/mL), Scg2#2 (SEQ ID NO: 19, […]) (2.75×10^13 gc/mL), Rgs2 (SEQ ID NO: 20, […]) (6.14×10^12 gc/mL), pAAV-CaMKIIa-mCherry (described herein, 3.80×1012 gc/mL), pAAV-CaMKIIa-hM3DGq-T2A-mCherry (described herein, 1.20×10^12 gc/mL), pAAV-hSyn-FlpOFF-Kir2.1-T2A-mCherry (described herein, 2.26×10^12 gc/mL), pAAV-hSyn-FlpOFF-Kir.2.1(Mutant)-T2A-mCherry (described herein, 1.28×10^12 gc/mL; see e.g., Xue et al. (2014), supra), pAAV-u6(Frt)-shRNA#31-CAG-Scg2-rescue (shRNA-resistant)-1×HA-T2A-mCherry-Frt-SV40 (described herein, 1.88×10^12 gc/mL), pAAV-CAG-DIO-Scg2(WT)-3×HA-bGH polyA (described herein, 8.22×10^13 gc/mL), pAAV-CAG-DIO-Scg2(9AA Mutant)-3×HA-bGH polyA (described herein, 6.13×10^13 gc/mL), pAAV-CAG-Frt-Scg2(WT)-1×HA-T2A-mCherry-Frt-bGH polyA (described herein, 1.08×10^13 gc/mL), and pAAV-CAG-Scg2(9AA Mutant)-1×HA-T2A-mCherry-Frt-bGH polyA (described herein, 3.71×10^12 gc/mL).
Ex vivo electrophysiology.

PV-IPSCs in CA1 PCs [3] = assay: Scg2 rescue and overexpression, dual whole-cell recordings of PV-IPSCs; format: in vivo, mice
Text: These findings were further corroborated through a series of rescue and overexpression experiments. […] In addition, amplitudes of light-evoked PV-IPSCs or CCK-IPSC were compared in Scg2-overexpressing (Scg2-OE) and neighboring control (Scg2-WT) neurons; gain-of-function of Scg2 was sufficient to strengthen PV-mediated inhibition and weaken CCK-mediated inhibition, respectively, in the absence of neural activity (see e.g., FIG. 5J, FIG. 15E, FIG. 15F).
Cleavage of the Scg2 precursor gives rise to multiple neuropeptides with distinct functions (see e.g., FIG. 4F). Given that Scg2 cleavage is directed by a series of internal dibasic residues, a cleavage-resistant form of Scg2 was generated in which the nine dibasic sequences were mutated to alanine (9AA-Mut).
Viral vectors and titers. All AAVs used were prepared in a Hospital Viral Core and were of serotype AAV2/1. For sparse transductions, viruses were injected at 1×10^8 genome copies per hippocampal hemisphere. For dense transductions, viruses were injected at 2×10^9 genome copies (gc) per hippocampal hemisphere. […]

CCK-IPSCs in CA1 PCs = assay: Scg2 rescue and overexpression, dual whole-cell recordings of CCK-IPSCs; format: in vivo, mice
[4] = exogenous expression in shRNA-mediated knockdown or Scg2fl/fl knockout conditions
[5] = overexpression in the absence of neural activity

O=C(O)[C@H]1CN(CCCP(=O)(O)O)CCN1 [(R)-CPP, 3-((R)-2-Carboxypiperazin-4-yl)-propyl-1-phosphonic acid]
onset latency of the IPSCs [1]: did not alter

NS(=O)(=O)c1cccc2c1c([N+](=O)[O-])cc1nc(O)c(O)nc12 [NBQX, 2,3-dihydroxy-6-nitro-7-sulphamoyl-benzo(F)quinoxaline]
onset latency of the IPSCs [1]: did not alter

shRNA Bdnf: shRNA in pAAV-FlpOFF-u6-shRNA-CAG-mCherry, SEQ ID NO: 15, GAATTGGCTGGCGATTCATA
amplitudes of PV-IPSC in shRNA-positive versus neighboring shRNA-negative PCs (PV-IPSCs in CA1 PCs [2]): slight decrease

shRNA Inhba: shRNA in pAAV-FlpOFF-u6-shRNA-CAG-mCherry, SEQ ID NO: 14, CCTTCCACTCAACAGTCATT
amplitudes of PV-IPSC in shRNA-positive versus neighboring shRNA-negative PCs (PV-IPSCs in CA1 PCs [2]): no effects

shRNA Nptx2: shRNA in pAAV-FlpOFF-u6-shRNA-CAG-mCherry, SEQ ID NO: 17, GAAGACATTGCCTGAGCTGT
amplitudes of PV-IPSC in shRNA-positive versus neighboring shRNA-negative PCs (PV-IPSCs in CA1 PCs [2]): no effects

shRNA Pcsk1: shRNA in pAAV-FlpOFF-u6-shRNA-CAG-mCherry, SEQ ID NO: 16, GATAATGATCATGATCCATT
amplitudes of PV-IPSC in shRNA-positive versus neighboring shRNA-negative PCs (PV-IPSCs in CA1 PCs [2]): no effects

shRNA Rgs2: shRNA in pAAV-FlpOFF-u6-shRNA-CAG-mCherry, SEQ ID NO: 20, GCTCCCAAAGAGATAAACAT
amplitudes of PV-IPSC in shRNA-positive versus neighboring shRNA-negative PCs (PV-IPSCs in CA1 PCs [2]): no effects

B1: Scg2: wildtype full-length Scg2 (secretogranin II) precursor protein exogenously expressed from AAV in CA1 pyramidal cells (protein, UniProt Q03517 1-617, looked up)
chain: MAGAKAYRLGAVLLLIHLIFLISGAEAASFQRNQLLQKEPDLRLENVQKFPSPEMIRALEYIEKLRQQAHREESSPDYNPYQGVSVPLQLKENGEESHLAESSRDALSEDEWMRIILEALRQAENEPPSAPKENKPYALNLEKNFPVDTPDDYETQQWPERKLKHMRFPLMYEENSRENPFKRTNEIVEEQYTPQSLATLESVFQELGKLTGPSNQKRERVDEEQKLYTDDEDDVYKTNNIAYEDVVGGEDWSPIEEKIETQTQEEVRDSKENTEKNEQINEEMKRSGQLGLPDEENRRESKDQLSEDASKVITYLRRLVNAVGSGRSQSGPNGDRAARLLQKPLDSQSIYQLIEISRNLQIPPEDLIEMLKAGEKPNGLVEPEQDLELAVDLDDIPEADLDRPDMFQSKMLSKGGYPKAPGRGMVEALPDGLSVEDILNVLGMENVVNQKSPYFPNQYSQDKALMRLPYGPGKSRANQIPKVAWIPDVESRQAPYENLNDQELGEYLARMLVKYPELLNTNQLKRVPSPVSSEDDLQEEEQLEQAIKEHLGPGSSQEMERLAKVSKRIPVGSLKNEDTPNRQYLDEDMLLKVLEYLNQEQAEQGREHLAKRAMENM
modifications: full-length
notes: wildtype full-length Scg2 (secretogranin II) precursor protein exogenously expressed from AAV in CA1 pyramidal cells
PV-mediated inhibition, rescue of loss of Scg2 (PV-IPSCs in CA1 PCs [3]; [4]): restored to control levels
PV-mediated inhibition, overexpressing versus neighboring control neurons (PV-IPSCs in CA1 PCs [3]; [5]): strengthen
CCK-mediated inhibition, rescue of loss of Scg2 (CCK-IPSCs in CA1 PCs; [4]): restored to control levels
CCK-mediated inhibition, overexpressing versus neighboring control neurons (CCK-IPSCs in CA1 PCs; [5]): weaken
